This note sets out measurements from a flash point compilation (Sun et al. 2020).

Molecules are shown by their SMILES.

Take `C#CCC1=C(C)C(OC(=O)[C@H]2[C@H](C=C(C)C)C2(C)C)CC1=O` (stereo partly drawn): the flash point worked out at 139.00 °C.
To `O=C([O-])CN(CCO)CCN(CC(=O)[O-])CC(=O)[O-].[Na+].[Na+].[Na+]` belongs 100.00 °C; to `O=c1oc2ccccc2c(O)c1C(CC(O)c1ccc(-c2ccc(Br)cc2)cc1)c1ccccc1` (stereo not drawn), 218.00 °C; to `C#CCN1CC(=O)N(COC(=O)C2C(C=C(C)C)C2(C)C)C1=O` (stereo not drawn), 110.00 °C.
To `CC(C)(C)C(=O)C(Oc1ccc(Cl)cc1)n1cncn1` (stereo not drawn) belongs 72.00 °C; to `CC(C)C1=CC2=CC[C@@H]3[C@](C)(CCC[C@@]3(C)C(=O)O)[C@H]2CC1`, 187.00 °C; to `CC(C)CCCCCCCOP(=S)([S-])OCCCCCCCC(C)C.CC(C)CCCCCCCOP(=S)([S-])OCCCCCCCC(C)C.[Zn+2]`, 280.00 °C.
For `CC(C)CCCCCOP(=S)([S-])OCCCCCC(C)C.CC(C)CCCCCOP(=S)([S-])OCCCCCC(C)C.[Zn+2]`, the flash point is 160.00 °C.
To `CC(C)N(C(=O)SCC(Cl)=C(Cl)Cl)C(C)C` belongs 90.00 °C; to `CC(C)N(C(=O)SCC(Cl)=CCl)C(C)C`, 96.00 °C.
To `CC1(C)C(C(=O)OC(C#N)c2cccc(Oc3ccccc3)c2)C1C(Br)C(Br)(Br)Br` (stereo not drawn) belongs 26.00 °C; to `COP(=S)(OC)Oc1ccc(SC)c(C)c1`, 170.00 °C.
To `Cc1cc(C)cc(N)c1.Cc1ccc(C)c(N)c1.Cc1ccc(N)c(C)c1.Cc1ccc(N)cc1C.Cc1cccc(C)c1N.Cc1cccc(N)c1C` belongs 97.00 °C; to `COc1nc(C)nc(NC(=O)NS(=O)(=O)c2ccccc2CCC(F)(F)F)n1`, 100.00 °C; to `CCC(CC)C(=O)OCCOCCOCCOC(=O)C(CC)CC`, 196.00 °C.
`CC(C)CC(C)C(C)C.CCCC(C)CC(C)C.CCCCC(C)C(C)C` (stereo not drawn): the flash point is 24.00 °C.
To `CCCCC(CC)CN1C(=O)C2C3C=CC(C3)C2C1=O` (stereo not drawn) belongs 177.00 °C.
To `CCCCCCC(O)C/C=C\CCCCCCCC(=O)OCC(COC(=O)CCCCCCC/C=C\CC(O)CCCCCC)OC(=O)CCCCCCC/C=C\CC(O)CCCCCC` (stereo not drawn) belongs 229.00 °C; to `CCCN(CCCl)c1c([N+](=O)[O-])cc(C(F)(F)F)cc1[N+](=O)[O-]`, 30.00 °C.
To `CCOC(=O)C1CC(=O)C(=C(O)C2CC2)C(=O)C1` (stereo not drawn) belongs 133.00 °C; to `CCOP(=O)(OCC)SCCSCC.CCOP(=S)(OCC)OCCSCC`, 45.00 °C.
The compound `CCOP(=S)(Oc1ccc([N+](=O)[O-])cc1)c1ccccc1` (stereo not drawn) gave a flash point of 30.00 °C.
To `CCOP(=S)(OCC)SCn1c(=O)oc2cc(Cl)ccc21` belongs 100.00 °C; to `CCOP(=S)(OCC)SCSCC`, 160.00 °C; to `CCOP(=S)(OCC)SCSP(=S)(OCC)OCC`, 176.00 °C.
Take `C#CCOc1cccc(-c2cc(C(F)(F)F)nc(S(=O)CC)n2)c1` (stereo not drawn): the flash point worked out at 240.00 °C.
To `CN(C)CCCC1(c2ccccc2)C(=O)N(N(C)Cc2ccccc2F)c2ccccc21` (stereo not drawn) belongs 193.00 °C; to `COc1nn(CSP(=S)(OC)OC)c(=O)s1`, 100.00 °C; to `C[C@@H]1[C@@H](c2ccc(Cl)cc2)SC(=O)N1C(=O)NC1CCCCC1`, 100.00 °C.
The compound `C[Si]1(C)O[Si](C)(C)O[Si](C)(C)O[Si](C)(C)O1` had a flash point of 55.00 °C.
In turn, `C[Si]1(C)O[Si](C)(C)O[Si](C)(C)O[Si](C)(C)O[Si](C)(C)O[Si](C)(C)O1` showed a flash point of 91.00 °C.
`c1ccc(-c2ccccc2)cc1` [1,1'-biphenyl] registered a flash point of 113.00 °C.
For `CC1=Nc2ccc3ccccc3c2C1(C)C` [1,1,2-trimethylbenzo[e]indole], the flash point stood at 182.00 °C.
To `CC(Cl)(Cl)[N+](=O)[O-]` [1,1-dichloro-1-nitroethane] belongs 76.00 °C; to `CC(C)OC(C)C(Cl)Cl` (stereo not drawn) [1,1-dichloro-2-propan-2-yloxypropane], 85.00 °C; to `CC(Cl)Cl` [1,1-dichloroethane], -6.00 °C.
To `C=C(Cl)Cl` [1,1-dichloroethene] belongs -10.00 °C; to `CCOC(C)OCC` [1,1-diethoxyethane], -21.00 °C; to `CC(C)c1ccc(NC(=O)N(C)C)cc1` [1,1-dimethyl-3-(4-propan-2-ylphenyl)urea], 100.00 °C.
With `CN(C)N` [1,1-dimethylhydrazine], the flash point was -15.00 °C.
To `Clc1c(Cl)c(Cl)c(Cl)c(Cl)c1Cl` [1,2,3,4,5,6-hexachlorobenzene] belongs 242.00 °C; to `O=[N+]([O-])c1c(Cl)c(Cl)c(Cl)c(Cl)c1Cl` [1,2,3,4,5-pentachloro-6-nitrobenzene], 127.00 °C; to `c1ccc2c(c1)CCCC2` [1,2,3,4-tetrahydronaphthalene], 80.00 °C.
Take `Clc1ccc(-c2ccc(Cl)c(Cl)c2Cl)c(Cl)c1Cl` [1,2,3-trichloro-4-(2,3,4-trichlorophenyl)benzene]: the flash point was found to be 141.00 °C.
For `ClC=C(Cl)CCl` [1,2,3-trichloroprop-1-ene], the flash point was determined as 85.00 °C.
To `ClCC(Cl)CCl` [1,2,3-trichloropropane] belongs 82.00 °C.
In turn, `CCc1cccc(CC)c1CC` [1,2,3-triethylbenzene] displayed a flash point of 83.00 °C.
To `Clc1cc(Cl)c(Cl)cc1Cl` [1,2,4,5-tetrachlorobenzene] belongs 155.00 °C.
To `CC(C)c1ccccc1C(C)C` [1,2-di(propan-2-yl)benzene] belongs 77.00 °C; to `O=[N+]([O-])c1cccc(Cl)c1Cl` [1,2-dichloro-3-nitrobenzene], 124.00 °C.
To `O=[N+]([O-])c1ccc(Cl)c(Cl)c1` [1,2-dichloro-4-nitrobenzene] belongs 124.00 °C; to `Clc1ccccc1Cl` [1,2-dichlorobenzene], 66.00 °C.
Turning to `ClCCCl` [1,2-dichloroethane], the flash point amounted to 13.00 °C.
To `CC(=O)OC(Cl)CCl` (stereo not drawn) [1,2-dichloroethyl acetate] belongs 153.00 °C.
To `CC(Cl)CCl.ClC=CCCl` (stereo not drawn) [1,2-dichloropropane;(E)-1,3-dichloroprop-1-ene] belongs 17.00 °C; to `CC(Cl)CCl` (stereo not drawn) [1,2-dichloropropane], 16.00 °C; to `CCOCCOCC` [1,2-diethoxyethane], 35.00 °C.
To `O=C=Nc1ccc2ccccc2c1N=C=O` [1,2-diisocyanatonaphthalene] belongs 192.00 °C; to `Cc1cccc([N+](=O)[O-])c1C` [1,2-dimethyl-3-nitrobenzene], 107.00 °C; to `c1ccc(-c2ccccc2-c2ccccc2)cc1` [1,2-diphenylbenzene], 163.00 °C.
As for `Cc1ccccc1C` [1,2-xylene], the flash point was determined as 17.00 °C.
In the case of `CC12CCC(CC1)C(C)(C)O2` [1,3,3-trimethyl-2-oxabicyclo[2.2.2]octane], the flash point is 49.00 °C.
To `ClC1=C(Cl)C2(Cl)C3C(Cl)C(Cl)CC3C1(Cl)C2(Cl)Cl` (stereo not drawn) [1,3,4,7,8,9,10,10-octachlorotricyclo[5.2.1.02,6]dec-8-ene] belongs 107.00 °C; to `C1N2CN3CN1CN(C2)C3` [1,3,5,7-tetrazatricyclo[3.3.1.13,7]decane], 250.00 °C.
To `C1OCOCO1` [1,3,5-trioxane] belongs 45.00 °C; to `Cc1c(Cl)cccc1Cl` [1,3-dichloro-2-methylbenzene], 82.00 °C.
To `CC1(C)C(=O)N(Cl)C(=O)N1Cl` [1,3-dichloro-5,5-dimethylimidazolidine-2,4-dione] belongs 174.00 °C; to `Clc1cccc(-c2cc(Cl)cc(Cl)c2)c1` [1,3-dichloro-5-(3-chlorophenyl)benzene], 141.00 °C.
`Clc1cccc(Cl)c1` [1,3-dichlorobenzene] showed a flash point of 63.00 °C.
Consider `OC(CCl)CCl` [1,3-dichloropropan-2-ol], for which the flash point was 74.00 °C.
Consider `Cc1c(N=C=O)cccc1N=C=O` [1,3-diisocyanato-2-methylbenzene], for which the flash point came out at 132.00 °C.
To `CNC(=O)NC` [1,3-dimethylurea] belongs 154.00 °C.
To `C1COCO1` [1,3-dioxolane] belongs 2.00 °C; to `Cc1cccc(C)c1` [1,3-xylene], 29.00 °C.
To `Clc1ccc(Cl)cc1` [1,4-dichlorobenzene] belongs 66.00 °C; to `CCc1ccc(CC)cc1` [1,4-diethylbenzene], 56.00 °C.
In the case of `COc1ccc(OC)cc1` [1,4-dimethoxybenzene], the flash point was 88.00 °C.
To `O=C=Nc1cccc2c(N=C=O)cccc12` [1,5-diisocyanatonaphthalene] belongs 155.00 °C.
To `ClCCCCCCCl` [1,6-dichlorohexane] belongs 74.00 °C; to `OOC1(OOC2(O)CCCCC2)CCCCC1` [1-(1-hydroperoxycyclohexyl)peroxycyclohexan-1-ol], 157.00 °C.
To `CCCCOCCOCCCC` [1-(2-butoxyethoxy)butane] belongs 85.00 °C.
Regarding `CC1CCC(C(C)(C)OO)CC1` (stereo not drawn) [1-(2-hydroperoxypropan-2-yl)-4-methylcyclohexane], the flash point was 53.00 °C.
To `CC(O)COCC(C)O` (stereo not drawn) [1-(2-hydroxypropoxy)propan-2-ol] belongs 138.00 °C.
